In PubChem BioAssay AID330 (DTP/NCI, 2004):
Several values for one entry are separate records, joined by “and”; a condition that tells them apart may be missing. Equal entries are not always repeated. Inconclusive results and toxic doses are left out.

System: P388 leukemia ip, CD2F1 mice, survival T/C
Assay: NCI In Vivo Anticancer Drug Screen. Data for tumor model P388 Leukemia (intraperitoneal) in CD2F1 (CDF1) mice
Details: endpoint: median survival time, higher = longer survival
Procedure: The antitumor activity of compounds was measured in mice bearing transplantable tumors. Survival or tumor size were measured and the results are expressed as the measurement made in the treated group (T) divided by the measurement made in the vehicle treated control group (C). The tumor model used in this assay is P388 Leukemia (intraperitoneal) in CD2F1 (CDF1) mice

[1] = dose: 50.0 mg/kg/injection, schedule: Q01DX009 (ip), vehicle: Klucel (hydroxypropylcellulose) (HPC)
[2] = dose: 100.0 mg/kg/injection, schedule: Q01DX009 (ip), vehicle: Klucel (hydroxypropylcellulose) (HPC)
[3] = dose: 200.0 mg/kg/injection, schedule: Q01DX009 (ip), vehicle: Klucel (hydroxypropylcellulose) (HPC)
[4] = dose: 50.0 mg/kg/injection, schedule: Q04DX002 (ip), vehicle: saline with Tween-80
[5] = dose: 100.0 mg/kg/injection, schedule: Q04DX002 (ip), vehicle: saline with Tween-80
[6] = dose: 25.0 mg/kg/injection, schedule: Q01DX005 (ip), vehicle: Klucel (hydroxypropylcellulose) (HPC)
[7] = dose: 50.0 mg/kg/injection, schedule: Q01DX005 (ip), vehicle: Klucel (hydroxypropylcellulose) (HPC)
[8] = dose: 100.0 mg/kg/injection, schedule: Q01DX005 (ip), vehicle: Klucel (hydroxypropylcellulose) (HPC)
[9] = dose: 200.0 mg/kg/injection, schedule: Q01DX005 (ip), vehicle: Klucel (hydroxypropylcellulose) (HPC)
[10] = dose: 200.0 mg/kg/injection, schedule: Q04DX002 (ip), vehicle: saline with Tween-80
[11] = dose: 50.0 mg/kg/injection, schedule: Q01DX009 (ip), vehicle: saline with Tween-80
[12] = dose: 100.0 mg/kg/injection, schedule: Q01DX009 (ip), vehicle: saline with Tween-80

For `CC1(C)Cc2oc(=O)n(-c3ccccc3)c(=O)c2C1`, the T/C [1] was 100 % of control, the T/C [2] was 102 % of control and the T/C [3] was 100 % of control.

With `O=NNc1ccc(F)cn1` the T/C (dose: 3.12 mg/kg/injection, schedule: Q01DX009 (ip), vehicle: water) was 117 % of control, the T/C (dose: 12.5 mg/kg/injection, schedule: Q01DX009 (ip), vehicle: water) was 153 % of control and the T/C (dose: 25.0 mg/kg/injection, schedule: Q01DX009 (ip), vehicle: water) was 162 % of control and 166 % of control. For the same molecule, the T/C (dose: 50.0 mg/kg/injection, schedule: Q01DX009 (ip), vehicle: water) was 99 % of control.

`CCOC(=O)N(C)C` was tested, and the T/C (dose: 25.0 mg/kg/injection, schedule: Q01DX009 (ip), vehicle: saline) was 89 % of control, the T/C (dose: 50.0 mg/kg/injection, schedule: Q01DX009 (ip), vehicle: saline) was 91 % of control and the T/C (dose: 100.0 mg/kg/injection, schedule: Q01DX009 (ip), vehicle: saline) was 99 % of control. The T/C (dose: 200.0 mg/kg/injection, schedule: Q01DX009 (ip), vehicle: saline) was 105 % of control.

For `COc1cc(NS(C)(=O)=O)ccc1Nc1c2ccc([N+](=O)[O-])cc2nc2c(C)cccc12`, the T/C (dose: 3.0 mg/kg/injection, schedule: Q01DX009 (ip), vehicle: saline with Tween-80) was 272 % of control, the T/C (dose: 3.0 mg/kg/injection, schedule: Q04DX003 (ip), vehicle: saline with Tween-80) was 181 % of control and the T/C (dose: 6.0 mg/kg/injection, schedule: Q01DX009 (ip), vehicle: saline with Tween-80) was 100 % of control. The T/C (dose: 6.0 mg/kg/injection, schedule: Q04DX003 (ip), vehicle: saline with Tween-80) was 209 % of control, the T/C (dose: 7.9 mg/kg/injection, schedule: Q04DX003 (ip), vehicle: saline with Tween-80) was 218 % of control and the T/C (dose: 12.0 mg/kg/injection, schedule: Q04DX003 (ip), vehicle: saline with Tween-80) was 181 % of control and 231 % of control.

In the case of `CN=C(N)NN=C(c1ccccc1)c1ccccc1`, the T/C (dose: 25.0 mg/kg/injection, schedule: Q04DX002 (ip), vehicle: saline with Tween-80) is reported as 104 % of control, the T/C [4] is reported as 109 % of control and the T/C [5] is reported as 110 % of control.

For `COc1c2c(cc3c1C(C1OC(=O)c4c1c([N+](=O)[O-])c(OC)c(OC)c4[N+](=O)[O-])N(C)CC3)OCO2` (centres undefined), the T/C [6] was 101 % of control, the T/C [7] was 92 % of control and the T/C [8] was 93 % of control. For the same molecule, the T/C [9] was 91 % of control.

In the case of `CCCCCc1nc(N)nc(-c2nc(N)nc(CCCCC)c2C)c1C`, the T/C (dose: 60.0 mg/kg/injection, schedule: Q01DX005 (ip), vehicle: saline) is reported as 96 % of control and the T/C (dose: 120.0 mg/kg/injection, schedule: Q01DX005 (ip), vehicle: saline) is reported as 100 % of control.

With `CN1/C(=C/C(=S)SCC(=O)c2ccccc2)C=Cc2ccccc21` the T/C [4] was 94 % of control, the T/C [5] was 90 % of control and the T/C [10] was 88 % of control.

In the case of `CC1CC(C)S(=O)CS1` (centres undefined), the T/C [5] is reported as 98 % of control and the T/C [10] is reported as 100 % of control.

`C=C(F)F` was tested, and the T/C [7] was 95 % of control, the T/C [8] was 101 % of control and the T/C [9] was 103 % of control.

`ClCc1ccccc1CCl` was tested, and the T/C (dose: 5.0 mg/kg/injection, schedule: Q04DX003 (ip), vehicle: saline with Tween-80) was 106 % of control, the T/C (dose: 10.0 mg/kg/injection, schedule: Q04DX003 (ip), vehicle: saline with Tween-80) was 94 % of control and the T/C (dose: 20.0 mg/kg/injection, schedule: Q04DX003 (ip), vehicle: saline with Tween-80) was 100 % of control. For the same molecule, the T/C (dose: 40.0 mg/kg/injection, schedule: Q04DX003 (ip), vehicle: saline with Tween-80) was 117 % of control.

For `O=C1/C(=C\O)C2CCC3CCC4CC1C342` (centres undefined), the T/C [6] was 103 % of control, the T/C [7] was 97 % of control and the T/C [8] was 107 % of control.

With `Cc1ccc(S(=O)(=O)OCC2(COCc3ccccc3)CCCCC2=O)cc1` (centres undefined) the T/C [1] was 106 % of control, the T/C [2] was 92 % of control and the T/C [3] was 95 % of control.

In the case of `Nc1c(/C=C/c2ccccc2)[nH]c(=O)[nH]c1=O`, the T/C (dose: 25.0 mg/kg/injection, schedule: Q04DX002 (ip), vehicle: saline) is reported as 104 % of control, the T/C (dose: 50.0 mg/kg/injection, schedule: Q04DX002 (ip), vehicle: saline) is reported as 105 % of control and the T/C (dose: 100.0 mg/kg/injection, schedule: Q04DX002 (ip), vehicle: saline) is reported as 121 % of control and 88 % of control.

With `CC1=NN(C(=O)c2ccccc2)C(=O)C1N=Nc1ccc(S(N)(=O)=O)cc1` (centres undefined) the T/C (dose: 50.0 mg/kg/injection, schedule: Q01DX001 (ip), vehicle: Klucel (hydroxypropylcellulose) (HPC)) was 101 % of control, the T/C (dose: 100.0 mg/kg/injection, schedule: Q01DX001 (ip), vehicle: Klucel (hydroxypropylcellulose) (HPC)) was 94 % of control and the T/C (dose: 200.0 mg/kg/injection, schedule: Q01DX001 (ip), vehicle: Klucel (hydroxypropylcellulose) (HPC)) was 96 % of control. The T/C (dose: 400.0 mg/kg/injection, schedule: Q01DX001 (ip), vehicle: Klucel (hydroxypropylcellulose) (HPC)) was 90 % of control.

With `CC(C)(c1ccc(OCOC(=O)NN)cc1)c1ccc(OCOC(=O)NN)cc1` the T/C [11] was 95 % of control and the T/C [12] was 102 % of control.

For `NC(=O)C1=C(C(=O)O)CCC1`, the T/C (dose: 25.0 mg/kg/injection, schedule: Q01DX009 (ip), vehicle: distilled water + Tween-80) was 99 % of control, the T/C (dose: 50.0 mg/kg/injection, schedule: Q01DX009 (ip), vehicle: distilled water + Tween-80) was 100 % of control and the T/C (dose: 100.0 mg/kg/injection, schedule: Q01DX009 (ip), vehicle: distilled water + Tween-80) was 98 % of control. The T/C (dose: 200.0 mg/kg/injection, schedule: Q01DX009 (ip), vehicle: distilled water + Tween-80) was 96 % of control and the T/C (dose: 400.0 mg/kg/injection, schedule: Q01DX009 (ip), vehicle: distilled water + Tween-80) was 92 % of control.

`O=C1NC2NC(=O)NC2N1` (centres undefined) was tested, and the T/C (dose: 100.0 mg/kg/injection, schedule: Q04DX003 (ip), vehicle: Klucel (hydroxypropylcellulose) (HPC)) was 94 % of control, the T/C (dose: 200.0 mg/kg/injection, schedule: Q04DX003 (ip), vehicle: Klucel (hydroxypropylcellulose) (HPC)) was 107 % of control and the T/C (dose: 400.0 mg/kg/injection, schedule: Q04DX003 (ip), vehicle: Klucel (hydroxypropylcellulose) (HPC)) was 100 % of control.

In the case of `O=C(Cc1ccccn1)c1cccnc1`, the T/C (dose: 100.0 mg/kg/injection, schedule: Q04DX003 (ip), vehicle: saline) is reported as 94 % of control, the T/C (dose: 200.0 mg/kg/injection, schedule: Q04DX003 (ip), vehicle: saline) is reported as 96 % of control and the T/C (dose: 400.0 mg/kg/injection, schedule: Q04DX003 (ip), vehicle: saline) is reported as 100 % of control.

`CCOC(=O)CC/C(=C\NC(=O)c1ccccc1)NC(=O)c1ccccc1` was tested, and the T/C (dose: 60.0 mg/kg/injection, schedule: Q01DX005 (ip), vehicle: saline with Tween-80) was 96 % of control, the T/C (dose: 120.0 mg/kg/injection, schedule: Q01DX005 (ip), vehicle: saline with Tween-80) was 88 % of control and the T/C (dose: 240.0 mg/kg/injection, schedule: Q01DX005 (ip), vehicle: saline with Tween-80) was 90 % of control.

In the case of `CSCOC/C=C(\C)CCC=C(C)C`, the T/C [11] is reported as 98 % of control, the T/C [12] is reported as 100 % of control and the T/C (dose: 200.0 mg/kg/injection, schedule: Q01DX009 (ip), vehicle: saline with Tween-80) is reported as 114 % of control.

`CC1(C)N=C(N)N=C(N)N1c1cccc(Cl)c1Cl` was tested, and the T/C (dose: 5.0 mg/kg/injection, schedule: Q01DX009 (ip), vehicle: saline with Tween-80) was 100 % of control, the T/C (dose: 5.0 mg/kg/injection, schedule: Q04DX003 (ip), vehicle: saline) was 95 % of control and the T/C (dose: 10.0 mg/kg/injection, schedule: Q01DX009 (ip), vehicle: saline with Tween-80) was 108 % of control. For the same molecule, the T/C (dose: 10.0 mg/kg/injection, schedule: Q04DX003 (ip), vehicle: saline) was 95 % of control, the T/C (dose: 20.0 mg/kg/injection, schedule: Q01DX009 (ip), vehicle: saline with Tween-80) was 121 % of control and the T/C (dose: 20.0 mg/kg/injection, schedule: Q04DX003 (ip), vehicle: saline) was 116 % of control.

`CCC(C)Nc1c(N)cc(C(F)(F)F)cc1N` (centres undefined) was tested, and the T/C (dose: 60.0 mg/kg/injection, schedule: Q01DX005 (ip), vehicle: Klucel (hydroxypropylcellulose) (HPC)) was 98 % of control, the T/C (dose: 120.0 mg/kg/injection, schedule: Q01DX005 (ip), vehicle: Klucel (hydroxypropylcellulose) (HPC)) was 97 % of control and the T/C (dose: 240.0 mg/kg/injection, schedule: Q01DX005 (ip), vehicle: Klucel (hydroxypropylcellulose) (HPC)) was 99 % of control.
